# Results taken from patent US10981875B2, “Quinolone-based compounds with anticancer activity” (Regents of the University of Minnesota, priority 2016, dated 2021).
# Read-outs that look alike come from different tables or passages of the source.
# How the values were obtained:
# human topoisomerase I = molecular target: T1, human topoisomerase I (Homo sapiens, UniProt P11387); assay: Topoisomerase I relaxation assay (human); type: biochemical
# T1 sequence (P11387 1-765): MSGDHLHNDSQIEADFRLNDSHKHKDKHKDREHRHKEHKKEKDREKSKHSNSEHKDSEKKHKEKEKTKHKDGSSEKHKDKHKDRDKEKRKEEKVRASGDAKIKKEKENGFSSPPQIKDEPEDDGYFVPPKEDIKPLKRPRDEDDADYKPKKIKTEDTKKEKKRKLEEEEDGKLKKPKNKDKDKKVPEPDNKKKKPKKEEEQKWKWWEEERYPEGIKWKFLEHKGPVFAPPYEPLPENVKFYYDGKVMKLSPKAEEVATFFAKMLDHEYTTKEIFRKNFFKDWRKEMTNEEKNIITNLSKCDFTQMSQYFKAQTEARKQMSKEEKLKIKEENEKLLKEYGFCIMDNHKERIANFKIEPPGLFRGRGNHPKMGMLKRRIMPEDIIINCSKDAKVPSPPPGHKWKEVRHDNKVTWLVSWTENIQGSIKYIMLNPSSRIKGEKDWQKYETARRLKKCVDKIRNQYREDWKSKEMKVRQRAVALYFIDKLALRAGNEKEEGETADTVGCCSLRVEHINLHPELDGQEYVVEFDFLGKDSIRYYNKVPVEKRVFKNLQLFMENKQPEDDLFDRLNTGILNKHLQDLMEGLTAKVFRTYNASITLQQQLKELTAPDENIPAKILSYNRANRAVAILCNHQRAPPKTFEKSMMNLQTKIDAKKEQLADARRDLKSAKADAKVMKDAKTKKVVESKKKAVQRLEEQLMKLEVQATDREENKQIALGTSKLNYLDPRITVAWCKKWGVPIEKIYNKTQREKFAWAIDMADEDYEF
# E. coli DNA gyrase = E. coli DNA gyrase (Escherichia coli, UniProt P0AES4+P0AES6); assay: DNA gyrase supercoiling assay; type: biochemical; details: Table 1
# calf topoisomerase I = molecular target: T2, calf topoisomerase I (Bos taurus, UniProt F1MN93); assay: Topoisomerase I relaxation assay (calf); type: biochemical; details: Table 1, calf enzyme, read-out: Topo I (c) IC50 (converted)
# T2 sequence (F1MN93 1-767): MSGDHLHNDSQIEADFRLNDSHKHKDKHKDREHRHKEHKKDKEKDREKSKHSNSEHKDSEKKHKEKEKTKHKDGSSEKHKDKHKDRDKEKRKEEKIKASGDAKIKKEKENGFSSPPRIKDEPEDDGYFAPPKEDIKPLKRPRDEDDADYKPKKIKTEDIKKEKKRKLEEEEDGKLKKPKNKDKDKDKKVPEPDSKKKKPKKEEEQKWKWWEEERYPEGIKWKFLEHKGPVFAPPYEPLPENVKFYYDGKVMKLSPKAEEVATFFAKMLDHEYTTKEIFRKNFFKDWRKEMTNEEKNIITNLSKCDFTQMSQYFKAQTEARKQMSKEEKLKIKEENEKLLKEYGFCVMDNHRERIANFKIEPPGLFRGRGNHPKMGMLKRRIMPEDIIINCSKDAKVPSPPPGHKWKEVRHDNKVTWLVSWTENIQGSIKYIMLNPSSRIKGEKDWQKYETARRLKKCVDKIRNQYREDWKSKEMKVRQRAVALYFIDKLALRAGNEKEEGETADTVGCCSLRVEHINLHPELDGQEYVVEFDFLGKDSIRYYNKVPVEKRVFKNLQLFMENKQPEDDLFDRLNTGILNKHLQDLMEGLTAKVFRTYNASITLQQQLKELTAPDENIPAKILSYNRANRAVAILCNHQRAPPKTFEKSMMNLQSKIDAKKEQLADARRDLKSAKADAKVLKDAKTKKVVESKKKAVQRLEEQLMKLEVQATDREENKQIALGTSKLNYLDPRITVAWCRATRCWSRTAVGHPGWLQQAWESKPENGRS
# human topoisomerase II [1] = molecular target: T3, human topoisomerase II (Homo sapiens, UniProt P11388); assay: Topoisomerase II decatenation assay; type: biochemical
# human topoisomerase II [2] = molecular target: T3, human topoisomerase II; assay: DNA cleavage assay (topoisomerase II poisoning); type: biochemical; details: various concentrations; FIG. 1
# Source text: (§1) Topoisomerase poisoning results in the accumulation of covalent topoisomerase-DNA complexes, which can be detected as the generation of nicked and/or linear DNA in DNA cleavage assays. Poisoning of human topoisomerase II generate double-strand breaks that lead to the development of therapy-related acute myeloid leukemia.
# [3] = system: mammalian topoisomerase I; assay: Topoisomerase I poisoning (DNA cleavage); type: biochemical
# Source text: as §1
# 60 cancer cell lines = assay: NCI 60 DTP Human Tumor Cell Line Screen; type: cell-based; details: for GI50: Homo sapiens, against the 60 cancer cell lines; for comparison of GI50 and LD50 values with etoposide (NCI's COMPARE program): majority of the 60 cancer cell lines; for mean growth: single dose (10 μM) screening
# Source text: Both 217 and 227 were submitted to the NCI for the 60 DTP Human Tumor Cell Line Screen.
# [4] = In vivo toxicity study (maximum tolerated dose); details: daily intraperitoneal, up to 30 mg/kg for 3 weeks
# Experimental: (§2) In vivo toxicity studies were performed to establish the maximum tolerated dose of 217 and 227 in mice. […] A proof of concept efficacy study was also conducted in mice with 217 and 227. Based on the in vitro susceptibility to 217 and 227, and the availability of the established xenograft models, a colon cancer (HT-29) xenograft model was used.
# [5] = system: colon cancer (HT-29) xenograft; assay: Colon cancer (HT-29) xenograft efficacy study; type: in vivo, mice; details: 3-week treatment, FIG. 2
# Experimental: as §2
# Aqueous solubility = type: physicochemical
# [6] = system: colon (HT-29) and leukemia (K-562) cell lines; assay: MTT anti-proliferative assay; type: cell-based; details: HT-29 and K-562
# Experimental: An MTT assay was performed with 277 and with the following compounds:
# [drawing 68] against colon (HT-29) and leukemia (K-562) cell lines to determine their in vitro anti-proliferative activities.
# [7] = Table 2, relaxation assay, read-out: Topo I IC50
# [8] = Table 1, human enzyme, relaxation assay, read-out: Topo I (h) IC50
# [9] = read-out: IC50 human topoisomerase I in the relaxation assay
# [10] = Table 1, decatenation assay, read-out: Topo II IC50
# [11] = Table 2, decatenation assay, read-out: Topo II IC50
# [12] = read-out: IC50 human topoisomerase II in the decatenation assay
# T3 sequence (P11388 whole entry): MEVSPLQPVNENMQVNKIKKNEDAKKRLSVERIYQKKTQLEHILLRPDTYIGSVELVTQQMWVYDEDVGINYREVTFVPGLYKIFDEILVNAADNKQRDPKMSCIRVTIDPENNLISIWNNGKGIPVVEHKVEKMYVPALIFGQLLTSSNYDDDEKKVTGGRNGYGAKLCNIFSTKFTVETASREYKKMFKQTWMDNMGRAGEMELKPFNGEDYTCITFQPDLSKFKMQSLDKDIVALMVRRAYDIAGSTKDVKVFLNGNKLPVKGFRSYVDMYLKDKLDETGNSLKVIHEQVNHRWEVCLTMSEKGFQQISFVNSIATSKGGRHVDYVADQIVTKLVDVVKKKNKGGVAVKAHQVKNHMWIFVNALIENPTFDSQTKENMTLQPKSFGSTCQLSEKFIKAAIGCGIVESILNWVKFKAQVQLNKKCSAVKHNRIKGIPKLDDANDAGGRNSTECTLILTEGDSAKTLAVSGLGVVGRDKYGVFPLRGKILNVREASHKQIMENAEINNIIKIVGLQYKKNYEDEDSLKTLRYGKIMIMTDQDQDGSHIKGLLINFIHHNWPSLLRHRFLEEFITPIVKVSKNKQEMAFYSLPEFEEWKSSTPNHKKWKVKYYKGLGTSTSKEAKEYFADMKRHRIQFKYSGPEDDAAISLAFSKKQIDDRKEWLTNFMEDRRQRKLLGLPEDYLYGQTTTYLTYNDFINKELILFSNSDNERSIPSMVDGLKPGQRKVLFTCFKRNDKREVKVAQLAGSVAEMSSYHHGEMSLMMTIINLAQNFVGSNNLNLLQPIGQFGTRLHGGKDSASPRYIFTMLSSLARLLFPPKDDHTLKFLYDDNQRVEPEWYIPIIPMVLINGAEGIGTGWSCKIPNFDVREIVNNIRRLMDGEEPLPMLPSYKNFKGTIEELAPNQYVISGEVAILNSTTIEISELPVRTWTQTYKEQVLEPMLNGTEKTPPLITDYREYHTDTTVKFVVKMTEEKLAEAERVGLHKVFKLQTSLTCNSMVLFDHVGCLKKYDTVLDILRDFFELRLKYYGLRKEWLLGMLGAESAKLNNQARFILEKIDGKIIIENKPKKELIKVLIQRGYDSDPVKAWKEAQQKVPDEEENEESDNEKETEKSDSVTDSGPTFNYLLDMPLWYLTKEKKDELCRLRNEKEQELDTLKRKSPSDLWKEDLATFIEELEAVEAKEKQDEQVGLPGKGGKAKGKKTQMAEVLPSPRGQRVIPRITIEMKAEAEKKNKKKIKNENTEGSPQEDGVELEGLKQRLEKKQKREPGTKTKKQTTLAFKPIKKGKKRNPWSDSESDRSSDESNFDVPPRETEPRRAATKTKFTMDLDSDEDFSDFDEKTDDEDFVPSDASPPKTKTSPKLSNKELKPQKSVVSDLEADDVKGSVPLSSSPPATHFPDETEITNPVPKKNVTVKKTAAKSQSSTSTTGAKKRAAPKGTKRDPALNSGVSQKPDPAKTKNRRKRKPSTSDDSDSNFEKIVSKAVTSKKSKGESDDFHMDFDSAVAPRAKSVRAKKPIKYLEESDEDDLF
# Sequence of E. coli DNA gyrase (P0AES4 whole entry, one chain of several): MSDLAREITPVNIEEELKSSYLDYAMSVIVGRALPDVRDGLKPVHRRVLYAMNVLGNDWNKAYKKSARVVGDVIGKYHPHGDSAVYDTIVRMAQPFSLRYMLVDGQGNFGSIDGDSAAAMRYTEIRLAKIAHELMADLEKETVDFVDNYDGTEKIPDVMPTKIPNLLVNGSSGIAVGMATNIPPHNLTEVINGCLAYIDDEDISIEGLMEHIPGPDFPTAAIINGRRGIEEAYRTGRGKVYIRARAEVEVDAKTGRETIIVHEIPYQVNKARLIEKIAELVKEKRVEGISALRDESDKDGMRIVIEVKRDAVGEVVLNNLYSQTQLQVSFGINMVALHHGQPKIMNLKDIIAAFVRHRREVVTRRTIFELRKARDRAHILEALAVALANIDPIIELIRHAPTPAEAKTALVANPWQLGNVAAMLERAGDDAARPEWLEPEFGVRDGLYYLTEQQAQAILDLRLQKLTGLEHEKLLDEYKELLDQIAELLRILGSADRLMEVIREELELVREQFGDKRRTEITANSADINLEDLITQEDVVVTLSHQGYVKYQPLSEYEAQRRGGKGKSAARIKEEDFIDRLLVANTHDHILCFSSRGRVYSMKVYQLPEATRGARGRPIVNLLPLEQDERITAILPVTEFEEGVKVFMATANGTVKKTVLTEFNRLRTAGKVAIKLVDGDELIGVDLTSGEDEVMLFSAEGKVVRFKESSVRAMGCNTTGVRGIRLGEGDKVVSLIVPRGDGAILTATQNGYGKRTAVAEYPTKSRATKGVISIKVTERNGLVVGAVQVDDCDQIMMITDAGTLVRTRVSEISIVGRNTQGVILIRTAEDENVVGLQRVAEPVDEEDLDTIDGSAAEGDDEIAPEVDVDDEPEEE
structure (smiles),measurement,setting,value
COc1c(N2C[C@@H]3CCCN[C@@H]3C2)c(F)cc2c(=O)c(C(=O)O)cn(Cc3ccc(-c4ccccc4)cc3)c12 [Compound 205],IC50,human topoisomerase I; [7],44.4 ± 0.8 µM
"COc1c(N2CC[C@@H](CN)C2)c(F)cc2c(=O)c(C(=O)O)cn(Cc3ccc4ccccc4c3)c12 [Compound 227, (S)-7-(3-(aminomethyl)pyrrolidin-1-yl)-6-fluoro-8-methoxy-1-(naphthalen-2-ylmethyl)-4-oxo-1,4-dihydroquinoline-3-carboxylic acid]",IC50,E. coli DNA gyrase,> 0.2 mM
same,IC50,human topoisomerase I; [8],43.7 ± 0.6 µM
same,IC50,human topoisomerase I; [9],43.1 µM
same,IC50,calf topoisomerase I,66.6 µM
same,IC50,human topoisomerase II [1]; [10],165 ± 20.2 µM
same,IC50,human topoisomerase II [1]; [11],165 ± 20.2 µM
same,IC50,human topoisomerase II [1]; [12],165 µM
same,increase in the amounts of linear DNA,human topoisomerase II [2],did not detect any significant increase (two-fold or less)
same,poisoning of mammalian topoisomerase I,[3],did not poison mammalian topoisomerase I
same,GI50,60 cancer cell lines,3100 nM
same,comparison of GI50 and LD50 values with etoposide (NCI's COMPARE program),60 cancer cell lines,significantly more effective than etoposide
same,mean growth,60 cancer cell lines,44.1%
same,effect on animal weight gain,[4],did not have any significant effect on animal weight gain
same,tolerability,[4],well-tolerated
same,inhibition of colon cancer proliferation in vivo,[5],exhibited activity but was not as effective as 217
same,aqueous solubility,Aqueous solubility,limited aqueous solubility
COc1c(N2CCNCC2)c(F)cc2c(=O)c(C(=O)O)cn(Cc3ccc(-c4ccccc4)cc3)c12 [Compound 207],IC50,human topoisomerase I; [7],54.2 ± 3.2 µM
NC[C@@H]1CCN(c2cc3c(cc2F)c(=O)n(N)c(=O)n3Cc2ccc3ccccc3c2)C1 [Compound 213a],IC50,human topoisomerase I; [7],59 ± 2.9 µM
"COc1c(N2CC[C@@H](CN)C2)c(F)cc2c(=O)c(C(=O)O)cn(Cc3ccc(-c4ccccc4)cc3)c12 [Compound 217, (S)-1-([1,1′-biphenyl]-4-ylmethyl)-7-(3-(aminomethyl)pyrrolidin-1-yl)-6-fluoro-8-methoxy-4-oxo-1,4-dihydroquinoline-3-carboxylic acid]",IC50,E. coli DNA gyrase,1.37 ± 0.0101 mM
same,IC50,human topoisomerase I; [8],26 ± 0.5 µM
same,IC50,human topoisomerase I; [9],26.5 µM
same,IC50,calf topoisomerase I,32.2 µM
same,IC50,human topoisomerase II [1]; [10],128 ± 4.7 µM
same,IC50,human topoisomerase II [1]; [11],128 ± 4.7 µM
same,IC50,human topoisomerase II [1]; [12],128 µM
same,increase in the amounts of linear DNA,human topoisomerase II [2],did not detect any significant increase (two-fold or less)
same,poisoning of mammalian topoisomerase I,[3],did not poison mammalian topoisomerase I
same,GI50,60 cancer cell lines,1900 nM
same,comparison of GI50 and LD50 values with etoposide (NCI's COMPARE program),60 cancer cell lines,significantly more effective than etoposide
same,mean growth,60 cancer cell lines,40.3%
same,effect on animal weight gain,[4],did not have any significant effect on animal weight gain
same,tolerability,[4],well-tolerated
same,inhibition of colon cancer proliferation in vivo,[5],inhibited the proliferation of colon cancer in vivo as well as fluorouracil (5-FU)
same,aqueous solubility,Aqueous solubility,limited aqueous solubility
COc1c(N2C[C@@H]3CCCN[C@@H]3C2)c(F)cc2c(=O)c(C(=O)O)cn(Cc3ccc4ccccc4c3)c12 [Compound 213],IC50,human topoisomerase I; [7],127.9 ± 0.8 µM
NC[C@@H]1CCN(c2cc3c(cc2F)c(=O)n(N)c(=O)n3Cc2ccc(-c3ccccc3)cc2)C1 [Compound 215a],IC50,human topoisomerase I; [7],25.9 ± 5.4 µM
NC[C@@H]1CCN(c2cc3c(cc2F)c(=O)c(C(=O)O)cn3Cc2ccc(-c3ccccc3)cc2)C1 [Compound 065],"anti-proliferative activity, fold higher than that of 217",[6],2-5 fold
COc1c(N2CCNCC2)c(F)cc2c(=O)c(C(=O)O)cn(Cc3ccc4ccccc4c3)c12 [Compound 215],IC50,human topoisomerase I; [7],132 ± 3.5 µM
